Source: the supplement of paper PMC10307832

Assays:
Test in all cases: relative viability (nuclei count vs DMSO), 5 days (fraction); higher = more cells survive
[1] = compound: COC1=CC=C(C=C1)CN2C=CC3=C2C=C(C=C3)C(=O)NO + CS(=O)(=O)CCNCc1ccc(-c2ccc3ncnc(Nc4ccc(OCc5cccc(F)c5)c(Cl)c4)c3c2)o1 [Lapatinib] (partner 2 µM)
How it was run: (§1)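 After 5 days of treatment, lung cancer cells in 1536-well plates were fixed and stained in a single step (final 0.05% Triton X-100, 1% formaldehyde, 1 ug/ml Hoechst) and their nuclei counted on 4× images. Treatment had been applied by pin tool the day after seeding as one drug alone or as a fixed anchor-drug dose with five library-drug doses (not always all listed) in √10 steps. Relative viability is the nuclei count of treated wells divided by that of vehicle wells, and values are medians of duplicate plates.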

[2] = compound: C[C@]1(c2nc3c(C(N)=O)cccc3[nH]2)CCCN1 [Veliparib] + O=C(c1cc(Cc2n[nH]c(=O)c3ccccc23)ccc1F)N1CCN(C(=O)C2CC2)CC1 [Olaparib] (partner 8 µM)
How it was run: as §1

[3] = compound: C[C@]1(c2nc3c(C(N)=O)cccc3[nH]2)CCCN1 [Veliparib] + Cc1cc(Nc2cc(N3CCN(C)CC3)nc(Sc3ccc(NC(=O)C4CC4)cc3)n2)n[nH]1 [Tozasertib] (partner 0.1 µM)
How it was run: as §1

[4] = compound: C[C@]1(c2nc3c(C(N)=O)cccc3[nH]2)CCCN1 [Veliparib] + Cc1nc(NC(=O)N2CCC[C@H]2C(N)=O)sc1-c1ccnc(C(C)(C)C(F)(F)F)c1 [Alpelisib] (partner 2 µM)
How it was run: as §1

Row | Cell Line | relative viability ([1]; first compound 0.08 µM) | relative viability ([1]; first compound 0.253 µM) | relative viability ([1]; first compound 0.8 µM) | relative viability ([1]; first compound 2.53 µM) | relative viability ([1]; first compound 8 µM) | relative viability ([2]; first compound 0.02 µM) | relative viability ([2]; first compound 0.06325 µM) | relative viability ([2]; first compound 0.2 µM) | relative viability ([2]; first compound 0.6325 µM) | relative viability ([2]; first compound 2 µM) | relative viability ([3]; first compound 0.02 µM) | relative viability ([3]; first compound 0.06325 µM) | relative viability ([3]; first compound 0.2 µM) | relative viability ([3]; first compound 0.6325 µM) | relative viability ([3]; first compound 2 µM) | relative viability ([4]; first compound 0.02 µM) | relative viability ([4]; first compound 0.06325 µM) | relative viability ([4]; first compound 0.2 µM) | relative viability ([4]; first compound 0.6325 µM) | relative viability ([4]; first compound 2 µM)
1 | LXF-289 | 0.301 | 0.921 | 0.878 | 0.926 | 0.883 | 1 | 1.04 | 1.01 | 0.986 | 1.16 | 0.194 | 0.193 | 0.233 | 0.208 | 0.216 | 1.02 | 1.02 | 0.997 | 1.01 | 1.06
2 | NCI-H23 | 0.383 | 1.21 | 1.06 | 1.01 | 0.88 | 0.34 | 0.338 | 0.345 | 0.355 | 0.314 | 0.38 | 0.429 | 0.434 | 0.381 | 0.426 | 0.662 | 0.623 | 0.749 | 0.564 | 0.713
3 | NCI-H322M |  | 0.628 | 0.644 | 0.293 | 0.499 |  | 0.737 | 0.786 | 0.74 | 0.715 |  | 0.425 | 0.416 | 0.499 | 0.422 | 0.763 | 0.719 | 0.78 | 0.7 | 0.772
4 | NCI-H358 |  | 0.472 | 0.437 | 0.394 | 0.397 | 0.673 | 0.739 | 0.662 | 0.564 | 0.597 | 0.121 | 0.107 | 0.106 | 0.106 | 0.102 |  | 0.763 | 0.953 | 0.775 | 1.01
5 | NCI-H460 | 0.118 | 1.04 | 0.953 | 0.907 | 0.931 | 0.427 | 0.316 | 0.489 | 0.434 | 0.425 | 0.512 | 0.438 | 0.334 | 0.478 | 0.308 |  | 0.342 | 0.539 | 0.347 | 0.441
6 | NCI-H520 | 0.425 | 0.891 | 0.943 | 0.886 | 0.803 | 0.352 | 0.329 | 0.332 | 0.366 | 0.358 | 0.337 | 0.488 | 0.439 | 0.47 | 0.503 | 0.882 | 1.06 | 0.859 | 0.791 | 1.03
7 | NCI-H596 | 0.976 | 1.01 | 1.25 | 1.11 | 0.999 | 0.832 | 0.587 | 0.75 | 0.7 | 0.738 | 0.838 | 0.774 | 0.99 | 0.859 | 0.811 | 0.516 | 0.497 | 0.541 | 0.472 | 0.526
8 | NCI-H647 | 0.626 | 1.07 | 1.04 | 1.1 | 0.97 | 0.657 | 0.465 | 0.659 | 0.505 | 0.572 | 0.28 | 0.346 | 0.263 | 0.357 | 0.254 | 1.38 | 1.07 | 1.42 | 1.22 | 1.11
9 | NCI-H650 | 0.601 | 0.837 | 0.927 | 0.732 | 0.759 | 0.355 | 0.329 | 0.383 | 0.431 | 0.378 | 0.809 | 0.683 | 0.773 | 0.686 | 0.799 | 1.28 | 0.983 | 1.23 | 0.999 | 1.2
10 | NCI-H661 |  | 0.471 | 0.471 | 0.443 | 0.402 | 0.749 | 0.824 | 0.712 | 0.692 | 0.741 | 0.349 | 0.363 | 0.336 | 0.329 | 0.388 | 0.361 | 0.581 | 0.653 | 0.701 | 0.699
11 | NCI-H727 | 0.775 | 0.927 | 0.868 | 0.942 | 0.915 | 0.601 | 0.549 | 0.739 | 0.665 | 0.748 | 0.672 | 0.648 | 0.573 | 0.495 | 0.654 | 0.512 | 0.572 | 0.598 | 0.538 | 0.488
12 | NCI-H838 |  | 1.01 | 0.98 | 1.03 | 0.873 | 0.852 | 0.729 | 0.802 | 0.702 | 0.764 | 0.344 | 0.28 | 0.285 | 0.256 | 0.25 | 0.971 | 0.843 | 1.08 | 0.935 | 1
13 | NCI-H1355 | 0.247 | 1.1 | 0.959 | 0.978 | 0.934 | 0.656 | 0.69 | 0.764 | 0.678 | 0.78 |  | 0.534 | 0.559 | 0.507 | 0.539 |  | 0.739 | 0.846 | 0.692 | 0.816
14 | NCI-H1395 | 0.674 | 0.851 | 0.937 | 0.93 | 0.778 | 0.435 | 0.395 | 0.448 | 0.415 | 0.471 | 0.684 | 0.787 | 0.754 | 0.656 | 0.706 |  | 1.37 | 0.873 | 1.09 | 0.74
15 | NCI-H1437 | 0.23 | 0.84 | 0.877 | 0.886 | 0.8 | 0.688 | 0.624 | 0.616 | 0.653 | 0.661 | 0.384 | 0.438 | 0.43 | 0.406 | 0.399 | 0.898 | 0.977 | 0.98 | 0.921 | 0.889
16 | NCI-H1651 | 0.425 | 0.886 | 0.857 | 0.767 | 0.746 | 0.172 | 0.197 | 0.183 | 0.173 | 0.183 | 0.864 | 0.654 | 0.646 | 0.604 | 0.545 | 0.889 | 0.83 | 0.922 | 0.828 | 0.856
17 | NCI-H1666 | 0.428 | 0.778 | 0.821 | 0.649 | 0.716 | 0.777 | 0.711 | 0.82 | 0.771 | 0.778 | 0.582 | 0.582 | 0.598 | 0.547 | 0.62 | 1.04 | 0.709 | 0.857 | 0.829 | 1
